Assay [1] has as its system Venturia inaequalis. Kind of assay: In Vitro Apple Scab Assay (ASC In Vitro). In kind it is cell-based. The conditions noted are these: germ tube length. The method, then:
A) Pathogen/Inoculum Production--A suspension of Venturia inaequalis conidia, adjusted to 150,000 spores/ml, is prepared using freshly harvested or frozen conidia. Apple seedlings, cv. McIntosh, are sprayed with this suspension and incubated in a high humidity chamber set at 20° C. with a 12 hour photoperiod for approximately four weeks. At maximum disease expression, a fine mist of deionized water is used to wash conidia from sporulating lesions and the resulting liquid/spore suspension is collected into glass vials and frozen at -80° C. for future use.
B) Compound Preparation--Water agar with 1.5% agar m/v is autoclaved to sterilization. Stock solutions of each compound of the present invention are made by solubilizing them in an appropriate solvent at a convenient concentration. Serial dilutions in solvent are made from this stock to execute the various test rates. When the molten agar is cool enough to pour, the compounds in solvent are dispensed into the agar such that the final concentration ratio of agar to solvent is 100:1. The agar is gently agitated and poured into petri plates, one plate per treatment. The standard used is 3-(difluoromethyl)-N-2,3-dihydro-1,1,3-trimethyl-1H-inden-4-yl)-1-Methyl-1H-Pyrazole-4-carboxamide as found in U.S. Pat. No. 5,093,347.
C) Test Execution--Twenty-four hours after pouring, the plates are ready for inoculation. The previously collected frozen spore suspension is thawed at room temperature and diluted to a concentration of 1×10^4 spores/ml with sterile water. Three drops of approximately 0.1 ml each of the suspension are placed into each plate in an equidistant configuration. The plates are then placed in a dark incubator set at 20° C.
D) Test Evaluation--Forty to forty-eight hours later, the lengths of the spore germ tubes are measured using an ocular lens scale on a binocular microscope. Ten germ tubes in a drop are measured and an average determined for that drop. This procedure is repeated for the other two drops. The values for the three drops are then averaged to give the mean for the treatment. Percent inhibition of germination is calculated using the following equation: % Inhibition=(avg. control length--avg. treatment length/avg. control length) X 100.

The subject of assay [2] is Venturia inaequalis. Kind of assay: Apple Scab Foliar Assay (ASC Cur). The following applies: 20 ppm, sprayed 72 hours after inoculation, apple seedlings. In kind it is in vivo. The method, then:
Apple Scab Foliar Assay Methods (ASC Cur)--This assay is that of Example 1 except for the sequence of the chemical application and pathogen inoculation events. One month old apple seedlings are inoculated as described. 72 hours later, the plants are removed from the mist chamber and sprayed with the test chemicals and then returned to the mist-chamber after 1 to 2 hours. Disease evaluation is made on day 8-12.

For another assay, the system named is Septoria nodorum. Briefly: Wheat Glume Blotch Foliar Assay, curative (WGB Cur). In kind it is in vivo. The conditions noted are these: application two days post-inoculation, * = averaged value. How it is done:
A) Host Propagation--Winter wheat plants, cv. Caldwell, are grown in 5.7 cm^2 pots, three per pot, and maintained in a growth chamber set at 20° C., 80% RH with a 12 hour photoperiod.
B) Compound Preparation--A 1.0% stock solution of each of the compounds of the present invention is first prepared utilizing an appropriate solvent such as acetone, water or DMSO. This stock is then used to prepare the final spray solution which contains the compound at the desired dosage, eg 100 ppm and 20 ppm, acetone at 20% v/v, Tween®20 at .05% w/v, and water at about 80%. Commercial standard used is tebuconazole at equivalent rates.
C) Compound Application, Seedlings are sprayed at the two-leaf stage (GS 12) using a DeVilbiss Model 152 hand operated sprayer set at 15-20 psi. Six ml of the test solution per treatment are applied to three pots. In the protectant assay (EXAMPLE 8), the compound application is made two days pre-inoculation. In the curative assay (EXAMPLE 9), the compound is applied during a brief interruption of the disease incubation period two days post-inoculation. […]
E) Test Evaluation--Eight to ten days after removal from the high humidity chamber, or twelve to fourteen days after inoculation, treatments are evaluated by visually estimating the percentage of the leaf area (on the first leaf) covered with lesions. […] Percent disease, as well as percent control values are calculated. […]

Assay [3] concerns Erysiphe graminis f. sp. tritici. Kind of assay: Wheat Powdery Mildew Foliar Curative Treatment (WPM Cur). In kind it is in vivo. The following applies: 20 ppm foliar curative, inoculation 48 hours prior to application. How it is done:
A) Pathogen/Inoculum Production follow as per Example 2. (B) Host Propagation, (C) Compound Preparation and (D) Compound Application follow as per Example 1.
E) Inoculation/Incubation--Inoculation is accomplished as per Example 1, 48 hours prior to compound application. The incubation period is temporarily interrupted for chemical treatment, the plants are allowed to dry and then returned to the incubation chamber.
(G) Evaluation and (H) Data follow as per Example 1. The percent protection values for the compounds of the present invention are as set out in the Table below.

Each structure is given as a SMILES string.

As for `C[C@H]1CCC[C@H](c2ccccc2NC(=O)c2cn(C)nc2C(F)F)C1` (relative stereo) [Number 3, 1H-pyrazole-4-carboxamide, 3-(difluoromethyl)-1-methyl-N-[2-(3-methylcyclohexyl)phenyl]-, trans-], the “ASC In vitro (A.I.) Activity Index” value in the assay with Venturia inaequalis [1] (0.1 ppm in water agar) and in the assay on Venturia inaequalis [1] (1.0 ppm in water agar) was 3 each time. Moreover, in the assay with Venturia inaequalis [2], the “ASC Cur percentage control” value came to 69%. Besides, the “WGB Cur percent control” value with Septoria nodorum (20 ppm) stood at 62%; with Septoria nodorum (100 ppm), 67%. Moreover, the “WPM Cur percent disease control” value in assay [3] is 89%.
On to `C[C@@H]1CCC[C@H](c2ccccc2NC(=O)c2cn(C)nc2C(F)F)C1` (relative stereo) [Number 2, 1H-pyrazole-4-carboxamide, 3-(difluoromethyl)-1-methyl-N-[2-(-3-methylcyclohexyl)phenyl]-, cis-], for which the “ASC In vitro (A.I.) Activity Index” value in the assay with Venturia inaequalis [1] (0.1 ppm in water agar) and with Venturia inaequalis [1] (1.0 ppm in water agar) was 3 each time.
